Measurements: patent US6716596B2, “Agents for replacement of NAD+/NADH system in enzymatic reactions” (The Regents of the University of California, priority 2001, dated 2004)
Structures can show the parent of a compound that is named as a salt.

Assay: UV-vis kinetics of the regioselective reduction with rhodium catalyst precursor (2) and formate
Settings: for kcat rate constant for catalysis / r1 initial rate: [2] 2.725 × 10^−5 M, 299° K
Text: The kinetics of the regioselective reduction reactions were further studied utilizing UV-vis techniques with the two biomimic compounds (1) and (6) and the results were compared to NAD^+ itself. Experimental conditions are described in Example 9.
The effect of the initial rate (ri) at low conversions to the 1,4-dihydro product (˜10%) was ascertained by varying the amount of substrate precatalyst (2) and sodium formate concentrations.
The initial rates (ri) of formation of compound (3) were obtained from plots of concentration (absorbance at 354 nm/ε) versus time at low conversions (˜10%). The values of kcat were calculated at 299° K.
Rates were obtained via UV-vis techniques and are an average of two runs.
This example describes studies producing kinetic and thermodynamic data for 1-benzylnicotinamide triflate (1a) performed in THF/H2O, 1:1, β-nicotinamide -5′-ribose methyl phosphate (6) H2O, pH=6.5, and NAD^+ performed in the regioselective reduction with [Cp*Rh(bpy)H2O)][OTf]2, 2 and in the presence of formate ion.
The kinetic experiments were carried out on a Hewlett Packard 8452A Diode Array Uv-Vis spectrophotometer, attached to a circulating water bath (VWR 1160). For experiments conducted at different temperatures, the circulating water bath, as well as the UV-vis instrument, were warmed up for at least an 1 hour before the kinic studies were initiated.
The 1-benzylnicotinamide triflate (1a) [CP*Rh(bpy)(H2O)][OTf]2 (2) and 1-benzyl-1,4 dihydronicotinamide (3) were synthesized by methods as described in Examples 2, 4 and 7. The NAD^+ and 1,4-NADH compounds were purchased from Sigma and used as received. The THF was distilled from Na and deoxygenate with N2 gas for 1 hour. Distilled water was purchased from Aldrich Chemical Co and deoxygenate prior to being used. A solution of THF/H2O (similar for 1:1 or 1:4 ratios) was used for all the kinetic experiments performed for compounds of 1-benzylnicotinamide type, unless otherwise specified. A stock solution of biomimic (1a) (0.018 M), 2 (6.23×10^−3 M), and sodium formate (0.25 M) were made for the kinetic experiments in THF/H2O (1:1).
A solution of 1-benzylnicotinamide triflate (1a), (4.29×10^−3 M) and sodium formate (0.0539) was made in a volumetric flask (10 mL) under N2 in a THF/H2O (1:1) mixture. The different concentration of biomimic (1a) and sodium formate used for the kinetic experiments are reported above.
A 3.0 mL aliquot of this solution was transferred to a thermostated UV-vis cell by using an air-free syringe, which was also purged with N2 gas. The sample was then brought to the desired temperature for 30-60 min in the UV-vis spectrophotometer thermostated cell holder. Then, 23 μL of a 6.23×10^−3 M stock solution of [CP*Rh(bpy)(H2O)^2+ (2), was added-by syringe under a positive N2 pressure, quickly mixed with the solution, and the absorbance increase at 354 nm was immediately recorded. The experiment was carried out for 2 hours and the formation of the product, 1-benzyl-1,4-dihydronicotinamide, (3) was followed, with the change in absorbance being recorded every 90 seconds. Some kinetic experiments were carried out until all the starting material was converted to product. The induced volume change was taken into account for the calculation of the turnover frequency (TOF).
The kinetic experiments for the β-nicotinamide-5′-ribose methyl phosphate (6) and natural NAD^+ were performed using the same general procedure described above. These kinetic experiments were carried out in H2O and the concentration of β-nicotinamide-5′-ribose methyl phosphate (6) or NAD^+, sodium formate, and [Cp*Rh(bpy)(H2O)]^2+ (2), were in the order of 1.50×10^−3, 0.0186 M, and 1.42×10^−5 M, respectively. The λmax for the β-nicotinamide-5′-ribose methyl phosphate, (6), and natural NAD^+ was 336 nm. In all the initial rate plots, time =0 s was removed from the plots of Concentration versus Time. The standard deviation of the ri were calculated from 2σ values.

[1] = [1a] 1.07 × 10^−3 M, HCO2Na 0.03266 M, 1:1 H2O/THF
[2] = [1a] 1.61 × 10^−3 M, HCO2Na 0.03260 M, 1:1 H2O/THF
[3] = [1a] 2.68 × 10^−3 M, HCO2Na 0.03266 M, 1:1 H2O/THF
[4] = [1a] 2.68 × 10^−4 M, HCO2Na 0.03266 M, 1:1 H2O/THF
[5] = [1a] 5.37 × 10^−4 M, HCO2Na 0.03259 M, 1:1 H2O/THF

NC(=O)c1ccc[n+](Cc2ccccc2)c1 [Compound 1a, 1-Benzylnicotinamide, Triflate Salt]
TOF (294° K, 1:1 H2O/THF, substrate 4.29 × 10^−3 M): 2 h⁻¹
ri initial rate (294° K, 1:1 H2O/THF, substrate 4.29 × 10^−3 M, HCO2Na 5.39 × 10^−2 M, (2) 4.33 × 10^−5 M): 1.23e-08 M/s
TOF (H2O/THF 1:1, 1a 4.29 × 10^−3 M): 2 h⁻¹
ri initial rate (H2O/THF 1:1, 1a 4.29 × 10^−3 M, HCO2Na 5.39 × 10^−2 M, (2) 4.33 × 10^−5 M): 1.23e-08 M/s
TOF (H2O/THF 4:1, 1a 1.68 × 10^−3 M): 10 h⁻¹
ri initial rate (H2O/THF 4:1, 1a 1.68 × 10^−3 M, HCO2Na 1.79 × 10^−3 M, (2) 1.71 × 10^−5 M): 4.31e-08 M/s
TOF (H2O/THF 4:1, 1a 4.82 × 10^−3 M): 13 h⁻¹
ri initial rate (H2O/THF 4:1, 1a 4.82 × 10^−3 M, HCO2Na 5.52 × 10^−2 M, (2) 4.83 × 10^−5 M): 1.75e-07 M/s
increase in initial rate of formation of the 1,4-dihydro derivative (3a), factor (THF/H2O from 1:1 to 1:4, comparable concentrations): > 6
kcat rate constant for catalysis [1]: 12.61 M^−2s^−1
r1 initial rate [1]: 1.2e-08 M/s
kcat rate constant for catalysis [2]: 14.03 M^−2s^−1
r1 initial rate [2]: 2.01e-08 M/s
kcat rate constant for catalysis [3]: 14.38 M^−2s^−1
r1 initial rate [3]: 3.43e-08 M/s
kcat rate constant for catalysis [4]: 8.85 M^−2s^−1
r1 initial rate [4]: 2.1e-09 M/s
kcat rate constant for catalysis [5]: 13.02 M^−2s^−1
r1 initial rate [5]: 6.3e-09 M/s
